From the supplement of paper PMC11061612

Experiments:
[1] = tested on: NCI-H1435 (Non-Small Cell Lung Carcinoma); test: Bliss excess, mean over the matrix (fraction); higher = more synergy
Method in brief: (§1)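 Cell lines grown in DMEM/F12 or RPMI with 10% FBS were plated in 1536-well plates and held 24 hours at 37°C, 5% CO2 before 72 hours of exposure to two-drug dose matrices, with DMSO typically at 0.2%. CellTiter-Glo 2.0 luminescence gave viability, which was converted to inhibition. Vehicle wells were set to 0 and blank wells to 1. Combination Emax is the second-highest inhibition in the matrix, and Bliss excess is the observed combination effect minus the expected EA + EB − EA·EB, where EA and EB are the single-agent effects.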

[2] = tested on: CAL-85-1 (Breast Carcinoma); test: as above
Method in brief: as §1

[3] = tested on: NTERA-2-cl-D1 (Other Solid Carcinomas); test: as above
Method in brief: as §1

[4] = tested on: GCIY (Gastric Carcinoma); test: as above
Method in brief: as §1

[5] = tested on: MG-63 (Osteosarcoma); test: as above
Method in brief: as §1

[6] = tested on: NCI-H1435 (Non-Small Cell Lung Carcinoma); test: combination Emax (second highest fraction inhibited in the dose matrix, 72 h); higher = more inhibition; extreme values may be limits of the assay
Method in brief: as §1

[7] = tested on: BC-1 (B-Cell Non-Hodgkin's Lymphoma); test: as above
Method in brief: as §1

[8] = tested on: SK-MEL-24 (Melanoma); test: as above
Method in brief: as §1

[9] = tested on: RPMI-8402 (T-Lymphoblastic Leukemia); test: as above
Method in brief: as §1

[10] = tested on: OCI-M1 (Acute Myeloid Leukemia); test: Bliss excess, mean over the matrix (fraction); higher = more synergy
Method in brief: as §1

[11] = tested on: SCC90 (Head and Neck Carcinoma); test: as above
Method in brief: as §1

[12] = tested on: NCI-H1944 (Lung Adenocarcinoma); test: combination Emax (second highest fraction inhibited in the dose matrix, 72 h); higher = more inhibition; extreme values may be limits of the assay
Method in brief: as §1

[13] = tested on: RS4-11 (B-Lymphoblastic Leukemia); test: Bliss excess, mean over the matrix (fraction); higher = more synergy
Method in brief: as §1

[14] = tested on: NCI-H2170 (Squamous Cell Lung Carcinoma); test: as above
Method in brief: as §1

[15] = tested on: HT-144 (Melanoma); test: as above
Method in brief: as §1

[16] = tested on: IGROV-1 (Ovarian Carcinoma); test: as above
Method in brief: as §1

[17] = tested on: JURL-MK1 (Chronic Myelogenous Leukemia); test: as above
Method in brief: as §1

[18] = tested on: TK (B-Cell Non-Hodgkin's Lymphoma); test: as above
Method in brief: as §1

[19] = tested on: Daudi (Burkitt's Lymphoma); test: combination Emax (second highest fraction inhibited in the dose matrix, 72 h); higher = more inhibition; extreme values may be limits of the assay
Method in brief: as §1

[20] = tested on: TOV-21G (Ovarian Carcinoma); test: as above
Method in brief: as §1
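Wherever Bliss excess, mean over the matrix is given: after 72 h of two-drug dosing.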

SMILES	Bliss excess [1]	Bliss excess [2]	Bliss excess [3]	Bliss excess [4]	Bliss excess [5]	combination Emax [6]	combination Emax [7]	combination Emax [8]	combination Emax [9]	Bliss excess [10]	Bliss excess [11]	combination Emax [12]	Bliss excess [13]	Bliss excess [14]	Bliss excess [15]	Bliss excess [16]	Bliss excess [17]	Bliss excess [18]	combination Emax [19]	combination Emax [20]
C[C@@H]1COCCN1c1cc(C2([S@](C)(=N)=O)CC2)nc(-c2ccnc3[nH]ccc23)n1 [AZD6738] + C1CC(C1)(C(=O)[O-])C(=O)[O-].N.N.[Pt+2] [Carboplatin] (first compound max 10 µM, 7x7, partner max 10 µM)	-0.0103	-0.0551	-0.0651	-0.066	-0.0391	0.136	0.849	0.36	0.967	–	–	–	–	–	–	–	–	–	–	–
O=C(c1cc(Cc2n[nH]c(=O)c3ccccc23)ccc1F)N1CCN(C(=O)C2CC2)CC1 [Olaparib] + CN(CC[C@H](CSC1=CC=CC=C1)NC2=C(C=C(C=C2)S(=O)(=O)NC(=O)C3=CC=C(C=C3)N4CCC(CC4)[C@H](C5=CC=CC=C5C6=CC=C(C=C6)Cl)O)S(=O)(=O)C(F)(F)F)CCO [AZD4320] (first compound max 10 µM, 7x7, partner max 1 µM)	-0.0086	0.0221	0.0258	0.0025	-0.0185	0.729	0.348	0.177	0.935	–	–	–	–	–	–	–	–	–	–	–
CS(=O)(=O)CCNCc1ccc(-c2ccc3ncnc(Nc4ccc(OCc5cccc(F)c5)c(Cl)c4)c3c2)o1 [Lapatinib] + NC1(c2ccc(-c3nc4ccn5c(=O)[nH]nc5c4cc3-c3ccccc3)cc2)CCC1 [MK-2206] (first compound max 10 µM, 7x7, partner max 10 µM)	0.0601	-0.0016	0.0305	0.0484	0.0157	0.665	0.957	0.949	1	0.0217	0.0358	0.941	–	–	–	–	–	–	–	–
COc1nnc2ccc(N3CCC(c4ccc(OCCN5CCN(C)C(=O)[C@H]5C)cc4)CC3)nn12 [AZD5153] + CN(CC[C@H](CSC1=CC=CC=C1)NC2=C(C=C(C=C2)S(=O)(=O)NC(=O)C3=CC=C(C=C3)N4CCC(CC4)[C@H](C5=CC=CC=C5C6=CC=C(C=C6)Cl)O)S(=O)(=O)C(F)(F)F)CCO [AZD4320] (first compound max 1 µM, 7x7, partner max 1 µM)	–	–	–	–	–	–	–	–	–	-0.0095	0.021	0.616	0.0211	0.0175	0.0439	0.0077	-0.0137	-0.0154	0.58	0.807
Cc1c2c(nn1C)CSCc1cc(n(C)n1)CSc1cc(c3ccccc3c1)OCCCc1c(C(=O)O)n(C)c3c-2c(Cl)ccc13 [AZD5991] + CC(=O)O[C@H]1C(=O)[C@@]2(C)[C@H]([C@H](OC(=O)c3ccccc3)[C@]3(O)C[C@H](OC(=O)[C@H](O)[C@@H](NC(=O)c4ccccc4)c4ccccc4)C(C)=C1C3(C)C)[C@]1(OC(C)=O)CO[C@@H]1C[C@@H]2O [Paclitaxel] (first compound max 1 µM, 7x7, partner max 3 µM)	0.0254	-0.0082	0.111	-0.0262	-0.0715	0.219	1	0.692	1	–	–	–	–	–	–	–	–	–	–	–
Cc1c2c(nn1C)CSCc1cc(n(C)n1)CSc1cc(c3ccccc3c1)OCCCc1c(C(=O)O)n(C)c3c-2c(Cl)ccc13 [AZD5991] + Cc1cc2ncnn2cc1Nc1ncc2c(n1)n(C1CCOCC1)c(=O)n2C [AZD7648] (first compound max 1 µM, 7x7, partner max 10 µM)	-0.0055	-0.055	-0.0697	-0.0242	-0.0265	0.211	1	0.232	0.836	-0.001	-0.029	0.384	–	-0.0144	-0.0131	-0.103	-0.0227	-0.0046	0.328	–
C[C@@H](Nc1cc(F)cc(F)c1)c1cc(C(=O)N(C)C)cc2c(=O)cc(N3CCOCC3)oc12 [AZD8186] + CC(=O)c1c(C)c2cnc(Nc3ccc(N4CCNCC4)cn3)nc2n(C2CCCC2)c1=O [Palbociclib] (first compound max 10 µM, 7x7, partner max 10 µM)	0.0802	-0.0529	0.0104	0.0171	0.0535	0.361	0.93	0.449	0.9	–	–	–	–	–	–	–	–	–	–	–
CS(=O)(=O)CCNCc1ccc(-c2ccc3ncnc(Nc4ccc(OCc5cccc(F)c5)c(Cl)c4)c3c2)o1 [Lapatinib] + Cn1cnc2c(F)c(Nc3ccc(Br)cc3Cl)c(C(=O)NOCCO)cc21 [Selumetinib] (first compound max 10 µM, 7x7, partner max 10 µM)	0.0172	0.0396	-0.0125	-0.0067	-0.0863	0.559	0.787	0.853	0.924	–	–	–	–	–	–	–	–	–	–	–
CN(CCO)CC[C@H](CSc1ccccc1)Nc1ccc(S(=O)(=O)NC(=O)c2ccc(N3CCC([C@@H](O)c4ccccc4-c4ccc(Cl)cc4)CC3)cc2)cc1S(=O)(=O)C(F)(F)F [AZD4320] + CS(=O)(=O)CCNCc1ccc(-c2ccc3ncnc(Nc4ccc(OCc5cccc(F)c5)c(Cl)c4)c3c2)o1 [Lapatinib] (first compound max 1 µM, 7x7, partner max 10 µM)	0.0765	0.0241	-0.026	0.0352	-0.0176	0.953	0.961	0.942	0.988	–	–	–	–	–	–	–	–	–	–	–
C[C@@H](Nc1cc(F)cc(F)c1)c1cc(C(=O)N(C)C)cc2c(=O)cc(N3CCOCC3)oc12 [AZD8186] + C1CN(CCC1(C(=O)N[C@@H](CCO)C2=CC=C(C=C2)Cl)N)C3=NC=NC4=C3C=CN4 [AZD5363] (first compound max 10 µM, 7x7, partner max 10 µM)	0.0283	-0.0285	-0.0573	-0.012	-0.0376	0.258	0.577	0.508	0.588	–	–	–	–	–	–	–	–	–	–	–
O=C(c1cc(Cc2n[nH]c(=O)c3ccccc23)ccc1F)N1CCN(C(=O)C2CC2)CC1 [Olaparib] + Cc1c2c(nn1C)CSCc1cc(n(C)n1)CSc1cc(c3ccccc3c1)OCCCc1c(C(=O)O)n(C)c3c-2c(Cl)ccc13 [AZD5991] (first compound max 10 µM, 7x7, partner max 1 µM)	-0.0055	-0.0484	0.0289	-0.041	-0.0465	0.117	1	0.0746	0.857	–	–	–	–	–	–	–	–	–	–	–
Cc1c2c(nn1C)CSCc1cc(n(C)n1)CSc1cc(c3ccccc3c1)OCCCc1c(C(=O)O)n(C)c3c-2c(Cl)ccc13 [AZD5991] + CS(=O)(=O)CCNCc1ccc(-c2ccc3ncnc(Nc4ccc(OCc5cccc(F)c5)c(Cl)c4)c3c2)o1 [Lapatinib] (first compound max 1 µM, 7x7, partner max 10 µM)	-0.0063	-0.0213	-0.0334	0.013	-0.0352	0.219	1	0.806	0.955	–	–	–	–	–	–	–	–	–	–	–
CCc1c2c(nc3ccc(O)cc13)-c1cc3c(c(=O)n1C2)COC(=O)[C@]3(O)CC [SN-38] + O=C(c1cc(Cc2n[nH]c(=O)c3ccccc23)ccc1F)N1CCN(C(=O)C2CC2)CC1 [Olaparib] (first compound max 0.3 µM, 7x7, partner max 10 µM)	0.0243	0.059	0.0387	0.0875	0.0681	0.326	1	0.775	1	–	0.0728	0.634	–	0.0726	–	–	0.0401	–	0.979	–
C=CCn1c(=O)c2cnc(Nc3ccc(N4CCN(C)CC4)cc3)nc2n1-c1cccc(C(C)(C)O)n1 [AZD1775] + CCc1c2c(nc3ccc(O)cc13)-c1cc3c(c(=O)n1C2)COC(=O)[C@]3(O)CC [SN-38] (first compound max 1 µM, partner max 0.3 µM)	0.0158	-0.0337	0.0011	-0.0431	-0.0239	0.547	1	0.806	1	–	–	–	–	–	–	–	–	–	–	–
Cc1c2c(nn1C)CSCc1cc(n(C)n1)CSc1cc(c3ccccc3c1)OCCCc1c(C(=O)O)n(C)c3c-2c(Cl)ccc13 [AZD5991] + Nc1ccn([C@@H]2O[C@H](CO)[C@@H](O)C2(F)F)c(=O)n1 [Gemcitabine] (first compound max 1 µM, 7x7, partner max 0.3 µM)	-0.0706	-0.027	-0.0695	0.0091	-0.071	0.317	1	0.758	1	–	–	–	–	–	–	–	–	–	–	–
C[C@@H](Oc1cc(-c2cnn(C3CCNCC3)c2)cnc1N)c1c(Cl)ccc(F)c1Cl [Crizotinib] + Cn1cnc2c(F)c(Nc3ccc(Br)cc3Cl)c(C(=O)NOCCO)cc21 [Selumetinib] (first compound max 10 µM, 7x7, partner max 10 µM)	-0.0088	-0.055	-0.027	-0.0266	-0.0017	0.136	0.838	0.93	0.99	–	–	–	–	–	–	–	–	–	–	–
O=C(c1cc(Cc2n[nH]c(=O)c3ccccc23)ccc1F)N1CCN(C(=O)C2CC2)CC1 [Olaparib] + CC1(C)CCC(CN2CCN(c3ccc(C(=O)NS(=O)(=O)c4ccc(NCC5CCOCC5)c([N+](=O)[O-])c4)c(Oc4cnc5[nH]ccc5c4)c3)CC2)=C(c2ccc(Cl)cc2)C1 [Venetoclax] (first compound max 10 µM, 7x7, partner max 1 µM)	-0.01	-0.026	-0.0419	-0.0547	0.0113	0.117	0.252	0.0984	0.53	–	–	–	–	–	–	–	–	–	–	–
